Test results taken from ChEMBL document CHEMBL1201861, “Genomics of Drug Sensitity in Cancer screening data, Wellcome Trust Sanger Institute”.

The compounds below were run on MDA-MB-175-VII (assay: cells). Conditions: Homo sapiens, MDA-MB-175-VII.
Assay type: functional, cell-based, Homo sapiens

`CS(=O)(=O)c1ccc(C(=O)Nc2ccc(Cl)c(-c3ccccn3)c2)c(Cl)c1` [VISMODEGIB] and `COc1cc2c(Nc3ccc(NC(=O)c4ccccc4)cc3)ncnc2cc1OCCCN1CCOCC1` cannot be ordered by IC50: > 10 µM for the first, > 4 µM for the second.

Each compound was assayed on YAPC (assay: cells). Conditions: Homo sapiens, YAPC.
Assay type: functional, cell-based, Homo sapiens
Description: SANGER: Inhibition of human YAPC cell growth in a cell viability assay.

`CS(=O)(=O)c1ccc(C(=O)Nc2ccc(Cl)c(-c3ccccn3)c2)c(Cl)c1` [VISMODEGIB] and `COc1cc2c(Nc3ccc(NC(=O)c4ccccc4)cc3)ncnc2cc1OCCCN1CCOCC1` cannot be ordered by IC50: > 10 µM for the first, > 4 µM for the second.

These compounds were tested on GCT (assay: cells). Conditions: Homo sapiens, GCT.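 Also: GCT cell line proliferation inhibition, read out with a cell viability assay.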
Assay type: functional, cell-based, Homo sapiens
Description: SANGER: Inhibition of human GCT cell growth in a cell viability assay.

Compared with `CS(=O)(=O)c1ccc(C(=O)Nc2ccc(Cl)c(-c3ccccn3)c2)c(Cl)c1` [VISMODEGIB], `COc1cc2c(Nc3ccc(NC(=O)c4ccccc4)cc3)ncnc2cc1OCCCN1CCOCC1` is lower in IC50: > 10 µM for the first, 3.77 µM for the second. The second is the more potent here.

These compounds were tested on SK-MEL3 (assay: cells). Conditions: Homo sapiens, SK-MEL3.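 Also: growth inhibition of human SK-MEL-3 cells, read out with a cell viability assay.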
Assay type: functional, cell-based, Homo sapiens, SK-MEL-3
Description: SANGER: Inhibition of human SK-MEL-3 cell growth in a cell viability assay.

`CS(=O)(=O)c1ccc(C(=O)Nc2ccc(Cl)c(-c3ccccn3)c2)c(Cl)c1` [VISMODEGIB] and `COc1cc2c(Nc3ccc(NC(=O)c4ccccc4)cc3)ncnc2cc1OCCCN1CCOCC1` cannot be ordered by IC50: > 10 µM for the first, > 4 µM for the second.

Each compound was assayed on MKN-28 (assay: cells). Conditions: Homo sapiens, MKN-28.
Assay type: functional, cell-based, Homo sapiens
Description: SANGER: Inhibition of human MKN28 cell growth in a cell viability assay.

`CS(=O)(=O)c1ccc(C(=O)Nc2ccc(Cl)c(-c3ccccn3)c2)c(Cl)c1` [VISMODEGIB] and `COc1cc2c(Nc3ccc(NC(=O)c4ccccc4)cc3)ncnc2cc1OCCCN1CCOCC1` cannot be ordered by IC50: > 10 µM for the first, > 4 µM for the second.

The compounds below were run on CAL-85-1 (assay: cells). Conditions: Homo sapiens, CAL-85-1.
Assay type: functional, cell-based, Homo sapiens
Description: SANGER: Inhibition of human CAL-85-1 cell growth in a cell viability assay.

`CS(=O)(=O)c1ccc(C(=O)Nc2ccc(Cl)c(-c3ccccn3)c2)c(Cl)c1` [VISMODEGIB] and `COc1cc2c(Nc3ccc(NC(=O)c4ccccc4)cc3)ncnc2cc1OCCCN1CCOCC1` cannot be ordered by IC50: > 10 µM for the first, > 4 µM for the second.

The compounds below were run on C32 (assay: cells). Conditions: Homo sapiens, C32.
Assay type: functional, cell-based, Homo sapiens
Description: SANGER: Inhibition of human C32 cell growth in a cell viability assay.

Going from `CS(=O)(=O)c1ccc(C(=O)Nc2ccc(Cl)c(-c3ccccn3)c2)c(Cl)c1` [VISMODEGIB] to `COc1cc2c(Nc3ccc(NC(=O)c4ccccc4)cc3)ncnc2cc1OCCCN1CCOCC1`, the IC50 falls from > 10 µM to 3.83 µM. The second is the more potent here.

Each compound was assayed on MDA-MB-361 (assay: cells). Conditions: Homo sapiens, MDA-MB-361.
Assay type: functional, cell-based, Homo sapiens

`CS(=O)(=O)c1ccc(C(=O)Nc2ccc(Cl)c(-c3ccccn3)c2)c(Cl)c1` [VISMODEGIB] and `COc1cc2c(Nc3ccc(NC(=O)c4ccccc4)cc3)ncnc2cc1OCCCN1CCOCC1` cannot be ordered by IC50: > 10 µM for the first, > 4 µM for the second.

What follows are compounds tested on DoTc2-4510 (assay: cells). Conditions: Homo sapiens, DoTc2-4510.
Assay type: functional, cell-based, Homo sapiens

`CS(=O)(=O)c1ccc(C(=O)Nc2ccc(Cl)c(-c3ccccn3)c2)c(Cl)c1` [VISMODEGIB] and `COc1cc2c(Nc3ccc(NC(=O)c4ccccc4)cc3)ncnc2cc1OCCCN1CCOCC1` cannot be ordered by IC50: > 10 µM for the first, > 4 µM for the second.

These compounds were tested on NUGC-3 (assay: cells). Conditions: Homo sapiens, NUGC-3.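 Also: growth inhibition of human NUGC-3 cells, read out with a cell viability assay.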
Assay type: functional, cell-based, Homo sapiens
Description: SANGER: Inhibition of human NUGC-3 cell growth in a cell viability assay.

Going from `CS(=O)(=O)c1ccc(C(=O)Nc2ccc(Cl)c(-c3ccccn3)c2)c(Cl)c1` [VISMODEGIB] to `COc1cc2c(Nc3ccc(NC(=O)c4ccccc4)cc3)ncnc2cc1OCCCN1CCOCC1`, the IC50 falls from > 10 µM to 3.85 µM.

What follows are compounds tested on SW1573 (assay: cells). Conditions: Homo sapiens, SW1573.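 Also: growth inhibition of SW1573 cells, read out with a cell viability assay.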
Assay type: functional, cell-based, Homo sapiens
Description: SANGER: Inhibition of human SW1573 cell growth in a cell viability assay.

`CS(=O)(=O)c1ccc(C(=O)Nc2ccc(Cl)c(-c3ccccn3)c2)c(Cl)c1` [VISMODEGIB] and `COc1cc2c(Nc3ccc(NC(=O)c4ccccc4)cc3)ncnc2cc1OCCCN1CCOCC1` cannot be ordered by IC50: > 10 µM for the first, > 4 µM for the second.

Each compound was assayed on D-542MG (assay: cells). Conditions: Homo sapiens, D-542MG.
Assay type: functional, cell-based, Homo sapiens
Description: SANGER: Inhibition of human D-542MG cell growth in a cell viability assay.

Compound `CS(=O)(=O)c1ccc(C(=O)Nc2ccc(Cl)c(-c3ccccn3)c2)c(Cl)c1` [VISMODEGIB] has an IC50 of 1.87 µM.

These compounds were tested on LoVo (assay: cells). Conditions: Homo sapiens, LoVo.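 Also: growth inhibition of human LoVo cells, read out with a cell viability assay.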
Assay type: functional, cell-based, Homo sapiens
Description: SANGER: Inhibition of human LoVo cell growth in a cell viability assay.

`CS(=O)(=O)c1ccc(C(=O)Nc2ccc(Cl)c(-c3ccccn3)c2)c(Cl)c1` [VISMODEGIB] and `COc1cc2c(Nc3ccc(NC(=O)c4ccccc4)cc3)ncnc2cc1OCCCN1CCOCC1` cannot be ordered by IC50: > 10 µM for the first, > 4 µM for the second.

Each compound was assayed on HSC-4 (assay: cells). Conditions: Homo sapiens, HSC-4.
Assay type: functional, cell-based, Homo sapiens
Description: SANGER: Inhibition of human HSC-4 cell growth in a cell viability assay.

In the case of `CS(=O)(=O)c1ccc(C(=O)Nc2ccc(Cl)c(-c3ccccn3)c2)c(Cl)c1` [VISMODEGIB], the IC50 is reported as > 10 µM.

What follows are compounds tested on NCI-H650 (assay: cells). Conditions: Homo sapiens, NCI-H650.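 Also: growth inhibition of NCI-H650 cells, read out by a viability assay.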
Assay type: functional, cell-based, Homo sapiens
Description: SANGER: Inhibition of human NCI-H650 cell growth in a cell viability assay.

`CS(=O)(=O)c1ccc(C(=O)Nc2ccc(Cl)c(-c3ccccn3)c2)c(Cl)c1` [VISMODEGIB] and `COc1cc2c(Nc3ccc(NC(=O)c4ccccc4)cc3)ncnc2cc1OCCCN1CCOCC1` cannot be ordered by IC50: > 10 µM for the first, > 4 µM for the second.

The compounds below were run on A-375 (assay: cells). Conditions: Homo sapiens, A-375.
Assay type: functional, cell-based, Homo sapiens
Description: SANGER: Inhibition of human A375 cell growth in a cell viability assay.

Compared with `CS(=O)(=O)c1ccc(C(=O)Nc2ccc(Cl)c(-c3ccccn3)c2)c(Cl)c1` [VISMODEGIB], `COc1cc2c(Nc3ccc(NC(=O)c4ccccc4)cc3)ncnc2cc1OCCCN1CCOCC1` is lower in IC50: > 10 µM for the first, 3.85 µM for the second.

These compounds were tested on DMS-273 (assay: cells). Conditions: Homo sapiens, DMS-273.
Assay type: functional, cell-based, Homo sapiens
Description: SANGER: Inhibition of human DMS-273 cell growth in a cell viability assay.

`CS(=O)(=O)c1ccc(C(=O)Nc2ccc(Cl)c(-c3ccccn3)c2)c(Cl)c1` [VISMODEGIB] and `COc1cc2c(Nc3ccc(NC(=O)c4ccccc4)cc3)ncnc2cc1OCCCN1CCOCC1` cannot be ordered by IC50: > 10 µM for the first, > 4 µM for the second.

What follows are compounds tested on ME-180 (assay: cells). Conditions: Homo sapiens, ME-180.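 Also: cell viability assay measuring growth inhibition of ME-180 cells.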
Assay type: functional, cell-based, Homo sapiens
Description: SANGER: Inhibition of human ME-180 cell growth in a cell viability assay.

`CS(=O)(=O)c1ccc(C(=O)Nc2ccc(Cl)c(-c3ccccn3)c2)c(Cl)c1` [VISMODEGIB] and `COc1cc2c(Nc3ccc(NC(=O)c4ccccc4)cc3)ncnc2cc1OCCCN1CCOCC1` cannot be ordered by IC50: > 10 µM for the first, > 4 µM for the second.

The compounds below were run on SiHa (assay: cells). Conditions: Homo sapiens, SiHa.
Assay type: functional, cell-based, Homo sapiens
Description: SANGER: Inhibition of human SiHa cell growth in a cell viability assay.

`CS(=O)(=O)c1ccc(C(=O)Nc2ccc(Cl)c(-c3ccccn3)c2)c(Cl)c1` [VISMODEGIB] and `COc1cc2c(Nc3ccc(NC(=O)c4ccccc4)cc3)ncnc2cc1OCCCN1CCOCC1` cannot be ordered by IC50: > 10 µM for the first, > 4 µM for the second.

What follows are compounds tested on GAMG (assay: cells). Conditions: Homo sapiens, GAMG.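 Also: cell growth inhibition measured by a viability assay in the GAMG human cell line.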
Assay type: functional, cell-based, Homo sapiens
Description: SANGER: Inhibition of human GAMG cell growth in a cell viability assay.

`CS(=O)(=O)c1ccc(C(=O)Nc2ccc(Cl)c(-c3ccccn3)c2)c(Cl)c1` [VISMODEGIB] and `COc1cc2c(Nc3ccc(NC(=O)c4ccccc4)cc3)ncnc2cc1OCCCN1CCOCC1` cannot be ordered by IC50: > 10 µM for the first, > 4 µM for the second.

What follows are compounds tested on HuCCT-1 (assay: cells). Conditions: Homo sapiens, HuCCT-1.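 Also: growth inhibition of HuCCT-1 cells, read out by a cell viability assay.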
Assay type: functional, cell-based, Homo sapiens, HuCCT1
Description: SANGER: Inhibition of human HuCCT1 cell growth in a cell viability assay.

`CS(=O)(=O)c1ccc(C(=O)Nc2ccc(Cl)c(-c3ccccn3)c2)c(Cl)c1` [VISMODEGIB] and `COc1cc2c(Nc3ccc(NC(=O)c4ccccc4)cc3)ncnc2cc1OCCCN1CCOCC1` cannot be ordered by IC50: > 10 µM for the first, > 4 µM for the second.

What follows are compounds tested on HCC1419 (assay: cells). Conditions: Homo sapiens, HCC1419.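 Also: growth inhibition of human HCC1419 cells, read out as cell viability.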
Assay type: functional, cell-based, Homo sapiens
Description: SANGER: Inhibition of human HCC1419 cell growth in a cell viability assay.

`CS(=O)(=O)c1ccc(C(=O)Nc2ccc(Cl)c(-c3ccccn3)c2)c(Cl)c1` [VISMODEGIB] and `COc1cc2c(Nc3ccc(NC(=O)c4ccccc4)cc3)ncnc2cc1OCCCN1CCOCC1` cannot be ordered by IC50: > 10 µM for the first, > 4 µM for the second.

Each compound was assayed on OE33 (assay: cells). Conditions: Homo sapiens, OE33.
Assay type: functional, cell-based, Homo sapiens
Description: SANGER: Inhibition of human OE33 cell growth in a cell viability assay.

`CS(=O)(=O)c1ccc(C(=O)Nc2ccc(Cl)c(-c3ccccn3)c2)c(Cl)c1` [VISMODEGIB] and `COc1cc2c(Nc3ccc(NC(=O)c4ccccc4)cc3)ncnc2cc1OCCCN1CCOCC1` cannot be ordered by IC50: > 10 µM for the first, > 4 µM for the second.

The compounds below were run on SCC-25 (assay: cells). Conditions: Homo sapiens, SCC-25.
Assay type: functional, cell-based, Homo sapiens
Description: SANGER: Inhibition of human SCC-25 cell growth in a cell viability assay.

`CS(=O)(=O)c1ccc(C(=O)Nc2ccc(Cl)c(-c3ccccn3)c2)c(Cl)c1` [VISMODEGIB] and `COc1cc2c(Nc3ccc(NC(=O)c4ccccc4)cc3)ncnc2cc1OCCCN1CCOCC1` cannot be ordered by IC50: > 10 µM for the first, > 4 µM for the second.

The compounds below were run on EGI-1 (assay: cells). Conditions: Homo sapiens, EGI-1.
Assay type: functional, cell-based, Homo sapiens
Description: SANGER: Inhibition of human EGI-1 cell growth in a cell viability assay.

`CS(=O)(=O)c1ccc(C(=O)Nc2ccc(Cl)c(-c3ccccn3)c2)c(Cl)c1` [VISMODEGIB] and `COc1cc2c(Nc3ccc(NC(=O)c4ccccc4)cc3)ncnc2cc1OCCCN1CCOCC1` cannot be ordered by IC50: > 10 µM for the first, > 4 µM for the second.

What follows are compounds tested on A549 (assay: cells). Conditions: Homo sapiens, A549.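 Also: growth inhibition of A549 cells, read out with a cell viability assay.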
Assay type: functional, cell-based, Homo sapiens
Description: SANGER: Inhibition of human A549 cell growth in a cell viability assay.

Going from `CS(=O)(=O)c1ccc(C(=O)Nc2ccc(Cl)c(-c3ccccn3)c2)c(Cl)c1` [VISMODEGIB] to `COc1cc2c(Nc3ccc(NC(=O)c4ccccc4)cc3)ncnc2cc1OCCCN1CCOCC1`, the IC50 falls from > 10 µM to 2.64 µM.

These compounds were tested on A2780 (assay: cells). Conditions: Homo sapiens, A2780.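 Also: growth inhibition of A2780 cells, read out with a cell viability assay.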
Assay type: functional, cell-based, Homo sapiens
Description: SANGER: Inhibition of human A2780 cell growth in a cell viability assay.

`CS(=O)(=O)c1ccc(C(=O)Nc2ccc(Cl)c(-c3ccccn3)c2)c(Cl)c1` [VISMODEGIB] and `COc1cc2c(Nc3ccc(NC(=O)c4ccccc4)cc3)ncnc2cc1OCCCN1CCOCC1` cannot be ordered by IC50: > 10 µM for the first, > 4 µM for the second.

Each compound was assayed on SBC-5 (assay: cells). Conditions: Homo sapiens, SBC-5.
Assay type: functional, cell-based, Homo sapiens
Description: SANGER: Inhibition of human SBC-5 cell growth in a cell viability assay.

`CS(=O)(=O)c1ccc(C(=O)Nc2ccc(Cl)c(-c3ccccn3)c2)c(Cl)c1` [VISMODEGIB] and `COc1cc2c(Nc3ccc(NC(=O)c4ccccc4)cc3)ncnc2cc1OCCCN1CCOCC1` cannot be ordered by IC50: > 10 µM for the first, > 4 µM for the second.

The compounds below were run on PC-3 (assay: cells). Conditions: Homo sapiens, PC-3.
Assay type: functional, cell-based, Homo sapiens
Description: SANGER: Inhibition of human PC-3 cell growth in a cell viability assay.

`CS(=O)(=O)c1ccc(C(=O)Nc2ccc(Cl)c(-c3ccccn3)c2)c(Cl)c1` [VISMODEGIB] and `COc1cc2c(Nc3ccc(NC(=O)c4ccccc4)cc3)ncnc2cc1OCCCN1CCOCC1` cannot be ordered by IC50: > 10 µM for the first, > 4 µM for the second.

These compounds were tested on H4 (assay: cells). Conditions: Homo sapiens, H4.
Assay type: functional, cell-based, Homo sapiens
Description: SANGER: Inhibition of human H4 cell growth in a cell viability assay.

Compared with `CS(=O)(=O)c1ccc(C(=O)Nc2ccc(Cl)c(-c3ccccn3)c2)c(Cl)c1` [VISMODEGIB], `COc1cc2c(Nc3ccc(NC(=O)c4ccccc4)cc3)ncnc2cc1OCCCN1CCOCC1` is lower in IC50: > 10 µM for the first, 1.82 µM for the second.

These compounds were tested on BFTC-909 (assay: cells). Conditions: Homo sapiens, BFTC-909.
Assay type: functional, cell-based, Homo sapiens
Description: SANGER: Inhibition of human BFTC-909 cell growth in a cell viability assay.

`CS(=O)(=O)c1ccc(C(=O)Nc2ccc(Cl)c(-c3ccccn3)c2)c(Cl)c1` [VISMODEGIB] and `COc1cc2c(Nc3ccc(NC(=O)c4ccccc4)cc3)ncnc2cc1OCCCN1CCOCC1` cannot be ordered by IC50: > 10 µM for the first, > 4 µM for the second.

What follows are compounds tested on KYSE-270 (assay: cells). Conditions: Homo sapiens, KYSE-270.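 Also: cell growth inhibition measured with a viability assay in the human KYSE-270 line.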
Assay type: functional, cell-based, Homo sapiens
Description: SANGER: Inhibition of human KYSE-270 cell growth in a cell viability assay.

`CS(=O)(=O)c1ccc(C(=O)Nc2ccc(Cl)c(-c3ccccn3)c2)c(Cl)c1` [VISMODEGIB] and `COc1cc2c(Nc3ccc(NC(=O)c4ccccc4)cc3)ncnc2cc1OCCCN1CCOCC1` cannot be ordered by IC50: > 10 µM for the first, > 4 µM for the second.
